Test results as given in US8722338B2, “Modulation of ABCG2-mediated urate transport to treat hyperuricemia and gout” (The Johns Hopkins University, priority 2009, dated 2014).
Entries after “also recorded” stand apart in the source; their conditions may differ.

How the values were obtained:
endogenous ABCG2 = molecular target: T1, endogenous ABCG2 (Sus scrofa, UniProt Q8MIB3); experiment: Urate accumulation in native LLC-PK1 renal proximal tubule cells; assay type: cell-based, porcine; settings: 5 μM FTC; 120 min; polarized LLC-PK1 cells; 500 μM cold urate and 25 μM hot urate
T1 construct: endogenous in cells; host or cells: LLC-PK1 porcine renal epithelial cells
T1 sequence (Q8MIB3 1-656): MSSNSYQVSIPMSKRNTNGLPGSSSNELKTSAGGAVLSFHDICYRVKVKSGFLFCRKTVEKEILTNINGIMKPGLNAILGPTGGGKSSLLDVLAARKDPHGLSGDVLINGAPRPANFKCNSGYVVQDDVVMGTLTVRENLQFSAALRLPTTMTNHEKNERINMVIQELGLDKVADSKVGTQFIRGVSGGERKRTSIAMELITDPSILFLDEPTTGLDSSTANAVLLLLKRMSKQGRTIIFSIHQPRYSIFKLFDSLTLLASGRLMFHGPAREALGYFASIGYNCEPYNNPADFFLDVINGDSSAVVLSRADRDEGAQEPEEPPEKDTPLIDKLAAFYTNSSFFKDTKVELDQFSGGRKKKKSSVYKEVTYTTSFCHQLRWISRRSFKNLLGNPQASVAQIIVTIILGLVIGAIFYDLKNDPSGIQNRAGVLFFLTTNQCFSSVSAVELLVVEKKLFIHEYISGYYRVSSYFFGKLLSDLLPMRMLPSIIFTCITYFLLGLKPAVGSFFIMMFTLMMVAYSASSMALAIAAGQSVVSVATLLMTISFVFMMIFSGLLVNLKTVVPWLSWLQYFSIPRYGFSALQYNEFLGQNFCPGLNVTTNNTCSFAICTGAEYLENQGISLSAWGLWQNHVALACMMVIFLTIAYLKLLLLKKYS
Procedure: LLC-PK1 porcine renal epithelial cells were cultured in Dulbecco's Modified Eagle medium (DMEM) supplemented with 10% FBS. LLC-PK1 cells were seeded at a high density into a 6-well plate and accumulation experiments were performed after the cells polarized. The cells were incubated in DMEM containing 500 μM cold urate and 25 μM hot urate with or without 5 μM FTC (US Biologicals); the incubation lasted 120 min. The cells were then washed four times with ice-cold DMEM and lysed with 500 μL of 1M NaOH. The lysate was collected and placed in a scintillation tubule along with 5 mL scintillation fluid and counted.

human ABCG2 = human ABCG2 (Homo sapiens, UniProt Q9UNQ0); settings: 5 μM FTC; oocytes injected with ABCG2 WT mRNA; C-14 urate
Sequence of human ABCG2 (Q9UNQ0 whole entry): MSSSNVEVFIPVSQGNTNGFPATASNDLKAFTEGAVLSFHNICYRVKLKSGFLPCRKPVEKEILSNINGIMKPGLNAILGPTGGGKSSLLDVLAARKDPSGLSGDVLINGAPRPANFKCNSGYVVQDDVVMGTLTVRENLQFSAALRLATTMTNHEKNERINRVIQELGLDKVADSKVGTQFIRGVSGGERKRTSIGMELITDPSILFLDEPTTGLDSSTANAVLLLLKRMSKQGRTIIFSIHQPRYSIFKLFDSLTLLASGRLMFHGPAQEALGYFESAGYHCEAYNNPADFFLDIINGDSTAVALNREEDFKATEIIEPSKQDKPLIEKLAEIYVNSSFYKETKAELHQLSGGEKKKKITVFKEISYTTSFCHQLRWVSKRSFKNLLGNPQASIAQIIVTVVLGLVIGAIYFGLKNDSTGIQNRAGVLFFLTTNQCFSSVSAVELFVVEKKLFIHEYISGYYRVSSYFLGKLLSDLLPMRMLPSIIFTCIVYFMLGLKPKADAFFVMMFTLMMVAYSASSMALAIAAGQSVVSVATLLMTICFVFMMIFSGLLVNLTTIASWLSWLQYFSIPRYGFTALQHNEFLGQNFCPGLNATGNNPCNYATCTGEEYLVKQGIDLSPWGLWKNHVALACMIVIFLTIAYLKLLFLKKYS
Procedure: Oocytes were removed from female pigmented Xenopus laevis (Xenopus 1 Inc.) and de-folliculated using collagenase A (Roche) in Ca^2+-free OR-2 ringer solution. Stage V-VI oocytes were selected and injected (Nanoinject II, Drummond Scientific) with 50 nL of either mRNA or H2O (as a control). All experiments were performed on the fourth day after injection. Oocytes after injection were cultured in a modified L-15 media (OR-3) and kept at 15-20° C. mRNA was prepared using the SP6 mMessage mMachine (Ambion Inc.) according to the manufactures protocol.
Radiolabeled C-14 uric acid (American Radio-labeled Chemicals) was dissolved in a stock solution of 2 mM NaOH with a final urate concentration of 2 mM (either 2 mM hot-radio labeled urate or 1 mM hot and 1 mM cold urate). For oocyte transport experiments, the radio labeled C-14 urate was included at various concentrations in ND96 ringers solution (in mM: 96 NaCl, 2 KCl, 2 MgCl2, 5 Hepes, 1.8 CaCl2, pH 7.5, and 5 mM glucose for overnight incubation experiments).
For accumulation studies, oocytes were incubated either for 1 or 2 h at room temperature in 50 μM C-14 urate or overnight in 500 μM C-14 urate at 15° C. After incubation the oocytes were washed in ice-cold ND96 solution 3-5 times to remove any superficial, residual C-14 urate from the oocytes. Oocytes were then pooled for scintillation counting. […]

## COc1ccc2c3c([nH]c2c1)[C@H](C=C(C)C)N1C(=O)[C@@H]2CCCN2C(=O)[C@@H]1C3 [FTC, fumitremorgin C]
Endogenous ABCG2
  urate export / intracellular urate accumulation compared with non-treated control cells: inhibits urate export; also recorded: significantly higher intracellular urate accumulation
Human ABCG2
  reduced urate accumulation in ABCG2-expressing oocytes in the presence of inhibitor: absent
